Experimental data taken from paper PMC10122656, “Siglec-6 mediates the uptake of extracellular vesicles through a noncanonical glycolipid binding pocket” (Nature Communications, 2023).
Where “and” joins values, the source holds several entries; their conditions need not be identical. Equal entries are not always repeated.

Columns and labels:
[1] = target: T1, CHO cells expressing Siglec-6 mutants (C46A, C172A, R to A mutants, F93A, L95A, G175M) (Homo sapiens, UniProt O43699, Q174A); assay: Cell assay (liposome/EV binding, flow cytometry); assay type: cell-based; settings: sheet Figure S28b, 3% GM3-DAG liposomes, Q174A;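 further: AF647 fluorescence intensity from 0.1 mol% AF647–PEG45–DSPE in liposomes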
T1 construct: These new CHO cell lines are the full-length versions of the Siglecs; expressed in transfected cells
T1 sequence (O43699 27-453 Q174A): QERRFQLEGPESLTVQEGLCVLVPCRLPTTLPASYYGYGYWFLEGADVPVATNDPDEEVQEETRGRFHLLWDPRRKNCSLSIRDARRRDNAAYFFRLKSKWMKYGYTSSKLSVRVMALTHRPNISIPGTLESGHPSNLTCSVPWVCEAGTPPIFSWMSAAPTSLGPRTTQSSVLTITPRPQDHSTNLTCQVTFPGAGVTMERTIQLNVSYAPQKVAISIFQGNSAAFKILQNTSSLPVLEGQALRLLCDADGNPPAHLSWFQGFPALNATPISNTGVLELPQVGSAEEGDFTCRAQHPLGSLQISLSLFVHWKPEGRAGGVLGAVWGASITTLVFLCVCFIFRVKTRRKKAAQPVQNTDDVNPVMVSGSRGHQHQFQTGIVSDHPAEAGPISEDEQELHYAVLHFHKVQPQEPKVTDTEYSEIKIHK
Protocol: (§1) Mutations were introduced into each Siglec via gene overlap extension PCR mutagenesis (primers were ordered through IDT). Mutagenesis primers can be found in Supplementary Tables 2 and 3 for the critical arginine mutants of the entire Siglec family and the additional Siglec-6 mutants respectively.
(§2) 200,000 cells/well were plated into a 96-well U-bottom microplate and centrifuged at 300 × g for 5 min. The cells were then resuspended in 50 µL of 50 µM liposome/50 µg/mL (protein concentration) of EV solution in DMEM F12 5% FBS and incubated at 37 °C for 30 min. Excess liposomes were then removed via centrifuged at 300 × g for 5 min followed by washing the cells with FACS solution. The cells were then resuspended in (1:250 V/V) anti-Siglec-flow buffer (1% V/V FBS, 500 µM, EDTA Hank’s Balanced Salt Solution pH 7.4), solution and left to rest on ice for 30 min. The cells were then centrifuged again at 300 × g for 5 min and the cells were resuspended in FACS buffer solution and were then ready for analysis by flow cytometry. Information regarding antibody clone, catalog number supplier, label isotype, and dilution can be found in Supplementary Table 6. The Siglec-positive cells were gated on for liposome-binding analysis (Supplementary Fig. 1b).
(§3) Flow cytometry measurements were collected on a 5-laser Fortessa X-20 (BD Bioscience). All the resulting data were analyzed using FlowJo (10.5.3) software (BD Biosciences).

[2] = target: T2, CHO cells expressing Siglec-6 mutants (C46A, C172A, R to A mutants, F93A, L95A, G175M) (Homo sapiens, UniProt O43699, L95A); assay: Cell assay (liposome/EV binding, flow cytometry); assay type: cell-based; settings: sheet Figure S28b, 3% GM3-DAG liposomes, L95A;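 further: AF647 fluorescence intensity from 0.1 mol% AF647–PEG45–DSPE in liposomes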
T2 construct: These new CHO cell lines are the full-length versions of the Siglecs; expressed in transfected cells
T2 sequence (O43699 27-453 L95A): as the sequence (O43699 27-453 Q174A) above, with L69A, A148Q counted along it
Protocol: as §1, §2, §3

[3] = target: T3, CHO cells expressing Siglec-6 mutants (C46A, C172A, R to A mutants, F93A, L95A, G175M) (Homo sapiens, UniProt O43699, C46A); assay: Cell assay (liposome/EV binding, flow cytometry); assay type: cell-based; settings: sheet Figure S26a, 3% GM3-DAG liposomes, C46A;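 further: AF647 fluorescence intensity from 0.1 mol% AF647–PEG45–DSPE in liposomes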
T3 construct: These new CHO cell lines are the full-length versions of the Siglecs; expressed in transfected cells
T3 sequence (O43699 27-453 C46A): as the sequence (O43699 27-453 Q174A) above, with C20A, A148Q counted along it
Protocol: as §1, §2, §3

[4] = target: T4, CHO cells expressing Siglec-6 mutants (C46A, C172A, R to A mutants, F93A, L95A, G175M) (Homo sapiens, UniProt O43699, R147A); assay: Cell assay (liposome/EV binding, flow cytometry); assay type: cell-based; settings: sheet Figure S26a, 3% GM3-DAG liposomes, R147A;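 further: AF647 fluorescence intensity from 0.1 mol% AF647–PEG45–DSPE in liposomes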
T4 construct: These new CHO cell lines are the full-length versions of the Siglecs; expressed in transfected cells
T4 sequence (O43699 27-453 R147A): as the sequence (O43699 27-453 Q174A) above, with R121A, A148Q counted along it
Protocol: as §1, §2, §3

[5] = target: T5, CHO cells expressing Siglec-6 mutants (C46A, C172A, R to A mutants, F93A, L95A, G175M) (Homo sapiens, UniProt O43699, R109A); assay: Cell assay (liposome/EV binding, flow cytometry); assay type: cell-based; settings: sheet Figure S26a, 3% GM3-DAG liposomes, R109A;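 further: AF647 fluorescence intensity from 0.1 mol% AF647–PEG45–DSPE in liposomes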
T5 construct: These new CHO cell lines are the full-length versions of the Siglecs; expressed in transfected cells
T5 sequence (O43699 27-453 R109A): as the sequence (O43699 27-453 Q174A) above, with R83A, A148Q counted along it
Protocol: as §1, §2, §3

[6] = target: T6, CHO cells expressing Siglec-6 mutants (C46A, C172A, R to A mutants, F93A, L95A, G175M) (Homo sapiens, UniProt O43699, R100A); assay: Cell assay (liposome/EV binding, flow cytometry); assay type: cell-based; settings: sheet Figure S26a, 3% GM3-DAG liposomes, R100A;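 further: AF647 fluorescence intensity from 0.1 mol% AF647–PEG45–DSPE in liposomes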
T6 construct: These new CHO cell lines are the full-length versions of the Siglecs; expressed in transfected cells
T6 sequence (O43699 27-453 R100A): as the sequence (O43699 27-453 Q174A) above, with R74A, A148Q counted along it
Protocol: as §1, §2, §3

[7] = target: T7, CHO cells expressing Siglec-6 mutants (C46A, C172A, R to A mutants, F93A, L95A, G175M) (Homo sapiens, UniProt O43699, E173A); assay: Cell assay (liposome/EV binding, flow cytometry); assay type: cell-based; settings: sheet Figure S28b, 3% GM3-DAG liposomes, E173A
T7 construct: These new CHO cell lines are the full-length versions of the Siglecs; expressed in transfected cells
T7 sequence (O43699 27-453 E173A): as the sequence (O43699 27-453 Q174A) above, with E147A, A148Q counted along it
Protocol: as §1, §2, §3

[8] = target: T8, CHO cells expressing Siglec-6 mutants (C46A, C172A, R to A mutants, F93A, L95A, G175M) (Homo sapiens, UniProt O43699, R101A); assay: Cell assay (liposome/EV binding, flow cytometry); assay type: cell-based; settings: sheet Figure S26a, 3% GM3-DAG liposomes, R101A
T8 construct: These new CHO cell lines are the full-length versions of the Siglecs; expressed in transfected cells
T8 sequence (O43699 27-453 R101A): as the sequence (O43699 27-453 Q174A) above, with R75A, A148Q counted along it
Protocol: as §1, §2, §3

[9] = target: T9, CHO cells expressing Siglec-6 mutants (C46A, C172A, R to A mutants, F93A, L95A, G175M) (Homo sapiens, UniProt O43699, R113A); assay: Cell assay (liposome/EV binding, flow cytometry); assay type: cell-based; settings: sheet Figure S26a, 3% GM3-DAG liposomes, R113A
T9 construct: These new CHO cell lines are the full-length versions of the Siglecs; expressed in transfected cells
T9 sequence (O43699 27-453 R113A): as the sequence (O43699 27-453 Q174A) above, with R87A, A148Q counted along it
Protocol: as §1, §2, §3

[10] = target: T10, CHO cells expressing Siglec-6 mutants (C46A, C172A, R to A mutants, F93A, L95A, G175M) (Homo sapiens, UniProt O43699, R90A); assay: Cell assay (liposome/EV binding, flow cytometry); assay type: cell-based; settings: sheet Figure S26a, 3% GM3-DAG liposomes, R90A
T10 construct: These new CHO cell lines are the full-length versions of the Siglecs; expressed in transfected cells
T10 sequence (O43699 27-453 R90A): as the sequence (O43699 27-453 Q174A) above, with R64A, A148Q counted along it
Protocol: as §1, §2, §3

[11] = target: T11, CHO cells expressing Siglec-6 mutants (C46A, C172A, R to A mutants, F93A, L95A, G175M) (Homo sapiens, UniProt O43699, R112A); assay: Cell assay (liposome/EV binding, flow cytometry); assay type: cell-based; settings: sheet Figure S26a, 3% GM3-DAG liposomes, R112A
T11 construct: These new CHO cell lines are the full-length versions of the Siglecs; expressed in transfected cells
T11 sequence (O43699 27-453 R112A): as the sequence (O43699 27-453 Q174A) above, with R86A, A148Q counted along it
Protocol: as §1, §2, §3

[12] = target: T12, CHO cells expressing Siglec-6 mutants (C46A, C172A, R to A mutants, F93A, L95A, G175M) (Homo sapiens, UniProt O43699, F93A); assay: Cell assay (liposome/EV binding, flow cytometry); assay type: cell-based; settings: sheet Figure S28b, 3% GM3-DAG liposomes, F93A
T12 construct: These new CHO cell lines are the full-length versions of the Siglecs; expressed in transfected cells
T12 sequence (O43699 27-453 F93A): as the sequence (O43699 27-453 Q174A) above, with F67A, A148Q counted along it
Protocol: as §1, §2, §3

[13] = target: WT Siglec-6 (Homo sapiens, UniProt O43699); assay: Binding competition between GM1 GLLs and 5 nGLLs; settings: 1 mol% GM1 liposomes
Sequence of WT Siglec-6 (O43699 27-453): as the sequence (O43699 27-453 Q174A) above, with A148Q counted along it
Description: Supplementary Fig. 20: Binding competition between GM1 GLLs and 5 nGLLs against WT Siglec-6.
Binding of 1 mol% GM1 liposomes to WT Siglec-6 in the presence of an increasing concentration of 5 mol%
5 nGLLs. Data is presented with a representative flow cytometry histogram and was quantified as the mean
± one standard deviation of the median fluorescent intensity (MFI) from […] three technical replicates. A
Brown-Forsythe and Welch one-way ANOVA was used to compare the binding of liposomes formulated
(1 picture or pasted object on this page, not shown here)

Row | liposome binding, fluorescence signal (replicates) [1] | liposome binding, fluorescence signal (replicates) [2] | liposome binding, fluorescence signal (replicates) [3] | liposome binding, fluorescence signal (replicates) [4] | liposome binding, fluorescence signal (replicates) [5] | liposome binding, fluorescence signal (replicates) [6] | liposome binding, fluorescence signal (replicates) [7] | liposome binding, fluorescence signal (replicates) [8] | liposome binding, fluorescence signal (replicates) [9] | liposome binding, fluorescence signal (replicates) [10] | liposome binding, fluorescence signal (replicates) [11] | liposome binding, fluorescence signal (replicates) [12] | binding of GM1 GLLs to WT Siglec-6 in presence of increasing concentration of 5 mol% 5 nGLLs [13] | SMILES
1 | 1364 and 1584 and 1412 | 497 and 522 and 557 and 567 | 789 and 784 and 873 and 937 | 10179 and 9364 and 9449 and 10723 | 3678 and 3427 and 3246 and 4185 | 2485 and 2181 and 2573 and 2894 | 1703 and 1773 and 1881 and 1652 | 5191 and 3671 and 4272 and 5125 | 4924 and 3926 and 3532 and 5592 | 6321 and 6067 and 6474 and 6517 | 4575 and 4566 and 3393 and 4882 | 1045 and 1034 and 1148 |  | CCCCCCCCCCCCCCCCOCC(COCCCCCCCCCCCCCCCC)OCc1cn(CCO[C@@H]2O[C@H](CO)[C@@H](O[C@@H]3O[C@H](CO)[C@H](O)[C@H](O[C@]4(C(=O)O)C[C@H](O)[C@@H](NC(C)=O)[C@H]([C@H](O)[C@H](O)CO)O4)[C@H]3O)[C@H](O)[C@H]2O)nn1 [GM3-DAG]
2 |  |  |  |  |  |  |  |  |  |  |  |  | decreased | CCCCCCCCCCCCCCCCOCC(COCCCCCCCCCCCCCCCC)OCc1cn(CCO[C@@H]2O[C@H](CO)[C@@H](O[C@@H]3O[C@H](CO)[C@H](O)[C@H](O[C@]4(C(=O)O)C[C@H](O)[C@@H](NC(C)=O)[C@H]([C@H](O)[C@H](O)CO)O4)[C@H]3O)[C@H](O)[C@H]2O)nn1 [nGL 5]
